Assay results taken from patent US5081225A, “Gram-positive and gram-negative antibacterial compounds from the microorganism, Janthinobacterium lividum” (E. R. Squibb & Sons, Inc., priority 1989, dated 1992).

Legend:
[1] = test system: Staphylococcus saprophyticus; experiment: agar dilution MIC, aerobic organisms; settings: Table 2; Staphylococcus saprophyticus SC 12875
[2] = test system: Staphylococcus epidermidis; experiment: agar dilution MIC, aerobic organisms; settings: Table 2
Enterobacter aerogenes = experiment: agar dilution MIC, aerobic organisms; settings: Table 1; Enterobacter aerogenes SC 10078
Enterobacter cloacae = experiment: agar dilution MIC, aerobic organisms; settings: Table 1; Enterobacter cloacae SC 8236
Streptococcus faecalis = experiment: agar dilution MIC, aerobic organisms
Bacillus subtilis = experiment: agar dilution MIC, aerobic organisms; settings: Table 2; Bacillus subtilis SC 3777
Escherichia coli = experiment: agar dilution MIC, aerobic organisms; settings: Table 1
Pseudomonas aeruginosa = experiment: agar dilution MIC, aerobic organisms; settings: Table 1
Proteus rettgeri = experiment: agar dilution MIC, aerobic organisms; settings: Table 1; Proteus rettgeri SC 8479
Klebsiella pneumoniae = experiment: agar dilution MIC, aerobic organisms; settings: Table 1; Klebsiella pneumoniae SC 9527
Staphylococcus aureus = experiment: agar dilution MIC, aerobic organisms
Streptococcus agalactiae = experiment: agar dilution MIC, aerobic organisms
Citrobacter freundii = experiment: agar dilution MIC, aerobic organisms; settings: Table 1; Citrobacter freundii SC 9518
[3] = agar dilution MIC, aerobic organisms; settings: Table 2; Nocardia monocytogenes SC 8523
Klebsiella aerogenes = experiment: agar dilution MIC, aerobic organisms; settings: Table 1; Klebsiella aerogenes SC 10440
Serratia marcescens = experiment: agar dilution MIC, aerobic organisms; settings: Table 1; Serratia marcescens SC 9783
Nocardia asteroides = experiment: agar dilution MIC, aerobic organisms; settings: Table 2; Nocardia asteroides SC 2626
Micrococcus luteus = experiment: agar dilution MIC, aerobic organisms; settings: Table 1; Micrococcus luteus SC 2495
Proteus mirabilis = experiment: agar dilution MIC, aerobic organisms; settings: Table 1; Proteus mirabilis SC 3855
[4] = stability under acidic conditions (observed during isolation); type: physicochemical
Protocol: The methanol extract is added to MCI GEL CHP20P™ (CHP20P) in water and the mixture is stirred for one hour. The charged resin is collected by vacuum filtration and washed with methanol, water, and acetonitrile. The charged resin is then packed in a column and the antibiotics are eluted with acetonitrile-water-formic acid. Further purification is achieved by chromatography on SEPHADEX LH-20™ in acetonitrile-water. Partial resolution of the three antibiotics, janthinocin A, B, and C, is effected by chromatography on CHP20P eluting with a gradient of acetonitrile-water-formic acid. Final separation and purification of janthinocins B and C is achieved by chromaography on CHP20P eluting with an acetonitrile-aqueous ammonium dihydrogen phosphate buffer gradient, followed by desalting on CHP20P, eluting with acetonitrile-water-formic acid, to give the pure antibiotics as off white powders. […] When janthinocin C is present, it co-elutes with janthinocin B in each of the initial chromatographies.

Salmonella typhosa = experiment: agar dilution MIC, aerobic organisms; settings: Table 1; Salmonella typhosa SC 1195
[5] = test system: Acinetobacter calcoaceticus; experiment: agar dilution MIC, aerobic organisms; settings: Table 1; Acinetobacter calcoaceticus SC 8333
Shigella sonnei = experiment: agar dilution MIC, aerobic organisms; type: cell-based; settings: Table 1; Shigella sonnei SC 8449
Text: The composition of K-10 agar was:

Proteus vulgaris = experiment: agar dilution MIC, aerobic organisms; settings: Table 1; Proteus vulgaris SC 9416
[6] = Staphylococcus epidermidis SC 9052 (Penicillin S)
[7] = Staphylococcus epidermidis SC 9083 (Penicillin R)
[8] = Staphylococcus epidermidis SC 9087 (Penicillin R)
[9] = Staphylococcus epidermidis SC 9607 (Penicillin R)
[10] = Staphylococcus epidermidis SC 10547 (Penicillin R)
[11] = Table 1, Streptococcus faecalis SC 9011
[12] = Table 2, Streptococcus faecalis SC 9011
[13] = Table 2, Streptococcus faecalis SC 9376
[14] = Table 2, Streptococcus faecalis SC 10938
[15] = Table 1, Staphylococcus aureus SC 1276
[16] = Table 1, Staphylococcus aureus SC 2399
[17] = Table 1, Staphylococcus aureus SC 2400
[18] = Table 1, Staphylococcus aureus SC 10165
[19] = Table 2, Staphylococcus aureus SC 2399 (Penicillin S)
[20] = Table 2, Staphylococcus aureus SC 2400 (Penicillin R)
[21] = Table 2, Staphylococcus aureus SC 3184 (Methicillin R)
[22] = Table 2, Staphylococcus aureus SC 9593 (Penicillin R)
[23] = Table 2, Staphylococcus aureus SC 9998 (Penicillin R)
[24] = Table 2, Staphylococcus aureus SC 10014 (Methicillin R)
[25] = Table 2, Staphylococcus aureus SC 10016 (Tetracycline R)
[26] = Table 2, Staphylococcus aureus SC 10020 (Methicillin R)
[27] = Table 2, Staphylococcus aureus SC 10820 (Erythromycin R)
[28] = Table 2, Staphylococcus aureus SC 11239 (Gentamicin R)
[29] = Table 2, Staphylococcus aureus SC 12691 (Erythromycin R)
[30] = Table 1, Streptococcus agalactiae SC 9287
[31] = Table 2, Streptococcus agalactiae SC 9285
[32] = Table 2, Streptococcus agalactiae SC 9287

janthinocin A
MIC [1]: 0.8 µg/mL | MIC [2, 6]: 0.8 µg/mL | MIC [2, 7]: 0.8 µg/mL | MIC [2, 8]: 0.8 µg/mL | MIC [2, 9]: 0.4 µg/mL | MIC [2, 10]: 0.8 µg/mL | MIC (Enterobacter aerogenes): 25 µg/mL | MIC (Enterobacter cloacae): 25 µg/mL | MIC (Streptococcus faecalis; [11]): 1.6 µg/mL | MIC (Streptococcus faecalis; [12]): 0.8 µg/mL | MIC (Streptococcus faecalis; [13]): 0.8 µg/mL | MIC (Streptococcus faecalis; [14]): 1.6 µg/mL | MIC (Bacillus subtilis): 0.4 µg/mL | MIC (Escherichia coli; Escherichia coli SC 8294): 25 µg/mL | MIC (Escherichia coli; Escherichia coli SC 10896): 6.3 µg/mL | MIC (Escherichia coli; Escherichia coli SC 10909): 6.3 µg/mL | MIC (Pseudomonas aeruginosa; Pseudomonas aeruginosa SC 8329): 100 µg/mL | MIC (Pseudomonas aeruginosa; Pseudomonas aeruginosa SC 9545): 50 µg/mL | MIC (Proteus rettgeri): 50 µg/mL | MIC (Klebsiella pneumoniae): 25 µg/mL | MIC (Staphylococcus aureus; [15]): 0.8 µg/mL | MIC (Staphylococcus aureus; [16]): 1.6 µg/mL | MIC (Staphylococcus aureus; [17]): 1.6 µg/mL | MIC (Staphylococcus aureus; [18]): 1.6 µg/mL | MIC (Staphylococcus aureus; [19]): 0.8 µg/mL | MIC (Staphylococcus aureus; [20]): 0.4 µg/mL | MIC (Staphylococcus aureus; [21]): 1.6 µg/mL | MIC (Staphylococcus aureus; [22]): 0.8 µg/mL | MIC (Staphylococcus aureus; [23]): 0.8 µg/mL | MIC (Staphylococcus aureus; [24]): 0.4 µg/mL | MIC (Staphylococcus aureus; [25]): 0.2 µg/mL | MIC (Staphylococcus aureus; [26]): 0.4 µg/mL | MIC (Staphylococcus aureus; [27]): 0.8 µg/mL | MIC (Staphylococcus aureus; [28]): 0.8 µg/mL | MIC (Staphylococcus aureus; [29]): 0.4 µg/mL | MIC (Streptococcus agalactiae; [30]): 0.2 µg/mL | MIC (Streptococcus agalactiae; [31]): 0.4 µg/mL | MIC (Streptococcus agalactiae; [32]): 0.4 µg/mL | MIC (Citrobacter freundii): 25 µg/mL | MIC [3]: 0.8 µg/mL | MIC (Klebsiella aerogenes): 25 µg/mL | MIC (Serratia marcescens): 25 µg/mL | MIC (Nocardia asteroides): 0.8 µg/mL | MIC (Micrococcus luteus): 0.2 µg/mL | MIC (Proteus mirabilis): 100 µg/mL | chemical stability [4]: converted to janthinocin C under acidic conditions | MIC (Salmonella typhosa): 12.5 µg/mL

janthinocin B
MIC [1]: 0.4 µg/mL | MIC [2, 6]: 0.4 µg/mL | MIC [2, 7]: 0.4 µg/mL | MIC [2, 8]: 0.4 µg/mL | MIC [2, 9]: 0.4 µg/mL | MIC [2, 10]: 0.4 µg/mL | MIC (Enterobacter aerogenes): 50 µg/mL | MIC (Enterobacter cloacae): 50 µg/mL | MIC (Streptococcus faecalis; [11]): 1.6 µg/mL | MIC (Streptococcus faecalis; [12]): 1.6 µg/mL | MIC (Streptococcus faecalis; [13]): 1.6 µg/mL | MIC (Streptococcus faecalis; [14]): 0.8 µg/mL | MIC (Bacillus subtilis): 0.1 µg/mL | MIC (Escherichia coli; Escherichia coli SC 8294): 25 µg/mL | MIC (Escherichia coli; Escherichia coli SC 10896): 6.3 µg/mL | MIC (Escherichia coli; Escherichia coli SC 10909): 6.3 µg/mL | MIC (Pseudomonas aeruginosa; Pseudomonas aeruginosa SC 8329): 100 µg/mL | MIC (Pseudomonas aeruginosa; Pseudomonas aeruginosa SC 9545): 50 µg/mL | MIC (Proteus rettgeri): 100 µg/mL | MIC (Klebsiella pneumoniae): 25 µg/mL | MIC (Staphylococcus aureus; [15]): 0.4 µg/mL | MIC (Staphylococcus aureus; [16]): 1.6 µg/mL | MIC (Staphylococcus aureus; [17]): 1.6 µg/mL | MIC (Staphylococcus aureus; [18]): 0.8 µg/mL | MIC (Staphylococcus aureus; [19]): 0.4 µg/mL | MIC (Staphylococcus aureus; [20]): 0.8 µg/mL | MIC (Staphylococcus aureus; [21]): 0.4 µg/mL | MIC (Staphylococcus aureus; [22]): 0.4 µg/mL | MIC (Staphylococcus aureus; [23]): 0.1 µg/mL | MIC (Staphylococcus aureus; [24]): 0.4 µg/mL | MIC (Staphylococcus aureus; [25]): 0.4 µg/mL | MIC (Staphylococcus aureus; [26]): 0.4 µg/mL | MIC (Staphylococcus aureus; [27]): 0.2 µg/mL | MIC (Staphylococcus aureus; [28]): 0.2 µg/mL | MIC (Staphylococcus aureus; [29]): 0.4 µg/mL | MIC (Streptococcus agalactiae; [30]): < 0.05 µg/mL | MIC (Streptococcus agalactiae; [31]): < 0.05 µg/mL | MIC (Streptococcus agalactiae; [32]): < 0.05 µg/mL | MIC (Citrobacter freundii): 25 µg/mL | MIC [3]: 1.6 µg/mL | MIC (Klebsiella aerogenes): 50 µg/mL | MIC [5]: 25 µg/mL | MIC (Serratia marcescens): 50 µg/mL | MIC (Nocardia asteroides): 3.1 µg/mL | MIC (Micrococcus luteus): 0.2 µg/mL | MIC (Proteus mirabilis): 100 µg/mL | MIC (Salmonella typhosa): 12.5 µg/mL

janthinocin C
MIC (Enterobacter aerogenes): > 100 µg/mL | MIC (Enterobacter cloacae): > 100 µg/mL | MIC (Streptococcus faecalis; [11]): 12.5 µg/mL | MIC (Escherichia coli; Escherichia coli SC 8294): > 100 µg/mL | MIC (Escherichia coli; Escherichia coli SC 10857): 50 µg/mL | MIC (Escherichia coli; Escherichia coli SC 10896): 50 µg/mL | MIC (Escherichia coli; Escherichia coli SC 10909): 25 µg/mL | MIC (Pseudomonas aeruginosa; Pseudomonas aeruginosa SC 8329): > 100 µg/mL | MIC (Pseudomonas aeruginosa; Pseudomonas aeruginosa SC 9545): > 100 µg/mL | MIC (Proteus rettgeri): > 100 µg/mL | MIC (Klebsiella pneumoniae): > 100 µg/mL | MIC (Staphylococcus aureus; [15]): 1.6 µg/mL | MIC (Staphylococcus aureus; [16]): 3.1 µg/mL | MIC (Staphylococcus aureus; [17]): 3.1 µg/mL | MIC (Staphylococcus aureus; [18]): 1.6 µg/mL | MIC (Streptococcus agalactiae; [30]): 0.8 µg/mL | MIC (Citrobacter freundii): 100 µg/mL | MIC (Klebsiella aerogenes): 100 µg/mL | MIC [5]: 25 µg/mL | MIC (Serratia marcescens): > 100 µg/mL | MIC (Micrococcus luteus): 1.6 µg/mL | MIC (Shigella sonnei): 100 µg/mL | MIC (Proteus vulgaris): > 100 µg/mL | MIC (Proteus mirabilis): > 100 µg/mL | MIC (Salmonella typhosa): 100 µg/mL
